# Reference: publication PMC8776894 (Communications Biology, 2022)
# How the values were obtained:
# [1] = system: brain of MCAO mice; assay: Fluorescence imaging of FITC-labeled VK in brain of stroke mice; type: in vivo, mouse; settings: stroke mice, brains collected at 0, 30, 60, 90, 120 min, confocal microscopy of sections
# Experimental: A successful MCAO model was established and these mice were used for subsequent experiments. Immediately after surgery, FITC or FITC-labeled VK were administered intravenously and mice were killed after 30 min to isolate the brain and imaged by an imaging system (IVIS Lumina II). For fluorescent imaging, the brain was immediately collected and kept in the dark for 0, 30, 60, and 90 min after the administration of VK. Frozen sections were prepared according to the above method (seen Morphological Assessment). Images were acquired by confocal microscopy (FV1000 MPE-B, Olympus).
# [2] = system: HT22 hippocampal neuron cells (OGD/R); assay: Live-cell imaging of FITC-labeled VK; type: cell-based, mouse; settings: HT22 cells after OGD/R, 7.35 µM (b12; method b96: 100 nM), 37 °C, confocal fluorescence
# Experimental: VK (Gly–Arg–Pro–Hyp–[…]NH2) was labeled with FITC in the N-terminus. VK (100 nM) was added to each well and, after 15 min of incubation at 37 °C, live-cell images were acquired and processed by confocal microscopy (Zeiss LSM 880). Live-cell images were recorded for 90 min. The negative group was FITC treated without labeled VK.
# After 24 h, medium in the transwell
# Cell cultures, treatment, and OGD.
# Experiments were divided into the four
# [3] = system: AKT phosphorylation; assay: p-AKT immunoblot under OGD/R with HOE140; type: cell-based; settings: HOE140 100 nM, VK 0.0735, 0.735, 7.35 µM
# Description: (5 pictures or pasted objects on this page, not shown here)
# [4] = system: MCAO/R mice; settings: mouse, in vivo
# [5] = system: MCAO/R mice; assay: Evans blue extravasation, BBB permeability; type: in vivo, mouse; settings: VK 300 µg/kg
# [6] = system: rats; settings: BK after transient forebrain ischemia in rats; ref not given; cited from earlier work
# Experimental: After the onset of cerebral ischemia stroke, ATP levels expeditiously decline during the first 5 min and fall to ~15–30% of the ATP concentration measured in the non-ischemic hemisphere over the first 2 h after ischemia onset. In the present study, VK therapy partially recovered energy metabolism in the ischemic hemisphere as determined by the detection of ATP and LD content. Furthermore, to illustrate the effect of VK on energy metabolism in neurons, the glycolysis and oxidative phosphorylation pathways in neurons were also evaluated by Seahorse after stroke. Increasing evidence indicates tha ...
molecule,measurement,setting,value
CC[C@H](C)[C@H](NC(=O)[C@H](CCCNC(=N)N)NC(=O)[C@H](Cc1ccccc1)NC(=O)[C@@H]1CCCN1C(=O)[C@H](CO)NC(=O)[C@H](Cc1ccccc1)NC(=O)CNC(=O)[C@@H]1C[C@@H](O)CN1C(=O)[C@@H]1CCCN1C(=O)[C@H](CCCNC(=N)N)NC(=O)CNC(=S)Nc1ccc2c(c1)C(=O)OC21c2ccc(O)cc2Oc2cc(O)ccc21)C(=O)N[C@@H](CC(=O)O)C(N)=O [FITC-labeled VK],distribution in brain regions,[1],"seen in the cortex, hippocampus, and striatum"
same,"crossing of the cell membrane, live-cell imaging",[2],partially crossed the cell membrane
HOE140,VK-mediated AKT activation,[3],inhibit VK-mediated AKT activation
same,major pharmacological effects of VK under HOE140 preconditioning,[4],blocked
same,"BBB integrity under combined administration of VK and HOE140, EB extravasation",[5],damaged the BBB integrity
Lys-(des-Arg9-Leu8)-BK [reference compound],functional injury under combination of VK and B1R antagonist,[4],improved functional injury
"bradykinin (RPPGFSPFR; Bradykinin; UniProt P01042 381-389, looked up) [BK, endogenous peptide]",neuroprotection,[6],97%
